Read-outs that look alike come from different tables or passages of the source.
Experiments:
5HT2C receptors = target: T1, 5HT2C receptors (Homo sapiens, UniProt P28335); experiment: Human 5-HT2C functional high throughput screening assay in CHO-K1 cells (calcium flux); format: cell-based; parameters: expressed in transfected cells; host or cells: CHO-K1 cells; conditions: for EC50: CHO-K1 cells, calcium flux
T1 sequence (P28335 33-458): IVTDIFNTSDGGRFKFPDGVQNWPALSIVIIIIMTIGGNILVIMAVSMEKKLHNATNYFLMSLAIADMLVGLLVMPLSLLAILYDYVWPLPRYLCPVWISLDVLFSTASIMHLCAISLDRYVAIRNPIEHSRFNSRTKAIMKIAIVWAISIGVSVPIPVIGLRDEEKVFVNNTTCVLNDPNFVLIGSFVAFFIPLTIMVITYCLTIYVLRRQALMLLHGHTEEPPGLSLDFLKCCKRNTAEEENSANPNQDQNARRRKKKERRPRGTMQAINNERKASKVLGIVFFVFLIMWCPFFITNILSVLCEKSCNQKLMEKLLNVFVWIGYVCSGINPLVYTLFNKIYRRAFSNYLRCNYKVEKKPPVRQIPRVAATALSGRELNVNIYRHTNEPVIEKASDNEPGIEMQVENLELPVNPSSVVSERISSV
Outline: (§1)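 Calcium flux in CHO-K1 cells overexpressing each receptor, using Ca4 dye with probenecid and FLIPR detection. Top concentration was 10 μM, diluted 1:10 across 6 points, and efficacy was scaled to serotonin.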

5HT2B receptors = target: T2, 5HT2B receptors (Homo sapiens, UniProt P41595); experiment: Human 5-HT2B functional high throughput screening assay in CHO-K1 cells (calcium flux); format: cell-based; conditions: for EC50: CHO-K1 cells, calcium flux
T2 construct: expressed in transfected cells; host or cells: CHO-K1 cells
Outline: as §1

[1] = 5-HT2C agonist activity, read-out: EC50
[2] = 5-HT2B agonist activity, read-out: EC50
[3] = CHO-K1, 5-HT2C, maximum functional response as percentage relative to the effect of serotonin, read-out: Emax
[4] = 5-HT2B, maximum functional response as percentage relative to the effect of serotonin
[5] = CHO-K1, 5-HT2C, maximum functional response as percentage relative to the effect of serotonin

T2 sequence (P41595 whole entry): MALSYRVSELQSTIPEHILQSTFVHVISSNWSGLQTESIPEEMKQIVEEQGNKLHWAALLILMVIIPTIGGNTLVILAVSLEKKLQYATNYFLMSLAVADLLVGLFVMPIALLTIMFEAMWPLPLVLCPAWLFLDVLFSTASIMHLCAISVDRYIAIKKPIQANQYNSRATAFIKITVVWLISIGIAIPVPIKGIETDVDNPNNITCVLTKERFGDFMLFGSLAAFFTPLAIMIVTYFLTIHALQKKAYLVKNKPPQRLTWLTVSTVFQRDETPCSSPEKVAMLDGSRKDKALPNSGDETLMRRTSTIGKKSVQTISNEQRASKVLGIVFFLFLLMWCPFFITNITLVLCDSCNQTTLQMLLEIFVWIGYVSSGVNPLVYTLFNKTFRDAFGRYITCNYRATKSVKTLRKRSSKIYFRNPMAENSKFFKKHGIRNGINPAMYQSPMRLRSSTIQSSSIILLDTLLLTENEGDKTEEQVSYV

EC50 (5HT2C receptors; [1]) [µM]	EC50 (5HT2B receptors; [2]) [µM]	Emax (5HT2C receptors; [3]) [%]	Emax (5HT2B receptors; [4])	SMILES	Emax (5HT2C receptors; [5]) [%]	Emax (5HT2B receptors; CHO-K1) [%]	EC50 (5HT2C receptors; EC50, 5-HT2C agonist activity) [µM]	EC50 (5HT2B receptors; EC50, 5-HT2B agonist activity) [µM]	further results
0.04	> 10	–	–	O=C1NC[C@@H]2CN(CCF)C[C@H]2c2ccc(-c3ccc(F)cc3)cc21 (relative stereo) [Example 384, Trans-2-(2-fluoroethyl)-8-(4-fluorophenyl)-2,3,3a,4,5,10b-hexahydropyrrolo[3,4-d][2]benzazepin-6(1H)-one]	–	–	–	–	Emax (5HT2C receptors; CHO-K1): 85%; Emax (5HT2B receptors): inactive
0.0003	> 10	95	inactive	O=C1NC[C@@H]2CNC[C@H]2c2ccc(-c3ccsc3Cl)cc21 (relative stereo) [Example 385, Trans-8-(2-chloro-3-thienyl)-2,3,3a,4,5,10b-hexahydropyrrolo[3,4-d][2]benzazepin-6(1H)-one]	–	–	–	–	–
0.006	> 10	95	inactive	CN1C[C@H]2CNC(=O)c3cc(-c4ccsc4Cl)ccc3[C@@H]2C1 (relative stereo) [Example 387, Trans-8-(2-chloro-3-thienyl)-2-methyl-2,3,3a,4,5,10b-hexahydropyrrolo[3,4-d][2]benzazepin-6(1H)-one]	–	–	–	–	–
0.008	> 10	90	inactive	CN1C[C@H]2CNC(=O)c3cc(-c4ccc5c(c4)C(=O)CCO5)ccc3[C@@H]2C1 (relative stereo) [Example 390, Trans-2-methyl-8-(4-oxo-3,4-dihydro-2H-chromen-6-yl)-2,3,3a,4,5,10b-hexahydropyrrolo[3,4-d][2]benzazepin-6(1H)-one]	–	–	–	–	–
–	–	–	–	Clc1ccc2c(c1)[C@@H]1CNC[C@H]1CCN2 (relative stereo) [Example 391, Trans-9-chloro-1,2,3,3a,4,5,6,10b-octahydropyrrolo[3,4-d][1]benzazepine]	90	70	0.09	0.02	–
–	–	–	–	Clc1cccc2c1NCC[C@@H]1CNC[C@@H]21 (relative stereo) [Example 392, Trans-7-chloro-1,2,3,3a,4,5,6,10b-octahydropyrrolo[3,4-d][1]benzazepine]	100	65	0.0007	0.04	–
–	–	–	–	Clc1cc(Br)c2c(c1)[C@@H]1CNC[C@@H]1CCO2 (relative stereo) [Example 393, Cis-7-bromo-9-chloro-2,3,3a,4,5,10b-hexahydro-1H-[1]benzoxepino[4,5-c]pyrrole]	60	20	0.2	0.1	–
–	–	–	–	Clc1cc(Br)c2c(c1)[C@H]1CNC[C@@H]1CCO2 (relative stereo) [Example 394, Trans-7-bromo-9-chloro-2,3,3a,4,5,10b-hexahydro-1H-[1]benzoxepino[4,5-c]pyrrole]	90	45	0.02	0.1	–
–	–	–	–	CN1C[C@H]2CCN(C)c3ccc(Cl)cc3[C@@H]2C1 (relative stereo) [Example 395, Trans-9-chloro-2,6-dimethyl-1,2,3,3a,4,5,6,10b-octahydropyrrolo[3,4-d][1]benzazepine]	50	65	0.5	0.08	–
–	–	–	–	Brc1ccc2c(c1)[C@@H]1CNC[C@H]1CCN2 (relative stereo) [Example 396, Trans-9-bromo-1,2,3,3a,4,5,6,10b-octahydropyrrolo[3,4-d][1]benzazepine]	90	60	0.03	0.006	–
0.005	> 10	95	inactive	c1ccc(-c2cccc3c2OCC[C@H]2CNC[C@H]32)cc1 (relative stereo) [Example 397, Trans-7-phenyl-2,3,3a,4,5,10b-hexahydro-1H-[1]benzoxepino[4,5-c]pyrrole]	–	–	–	–	–
–	–	–	–	Fc1ccc(COc2cccc3c2OCC[C@H]2CNC[C@H]32)cc1 (relative stereo) [Example 398, Trans-7-[(4-fluorobenzyl)oxy]-2,3,3a,4,5,10b-hexahydro-1H-[1]benzoxepino[4,5-c]pyrrole]	90	100	0.002	0.003	–
0.09	> 10	90	inactive	Fc1ccc(-c2cccc3c2OCC[C@H]2CNC[C@H]32)cc1 (relative stereo) [Example 399, Trans-7-(4-fluorophenyl)-2,3,3a,4,5,10b-hexahydro-1H-[1]benzoxepino[4,5-c]pyrrole]	–	–	–	–	–
0.8	> 10	70	inactive	CN1C[C@@H]2CCOc3c(-c4ccc(F)cc4)cccc3[C@H]2C1 (relative stereo) [Example 400, Trans-7-(4-fluorophenyl)-2-methyl-2,3,3a,4,5,10b-hexahydro-1H-[1]benzoxepino[4,5-c]pyrrole]	–	–	–	–	–
0.8	> 10	70	inactive	Fc1ccc(-c2cccc3c2NCC[C@@H]2CNC[C@@H]32)cc1 (relative stereo) [Example 401, Trans-7-(4-fluorophenyl)-1,2,3,3a,4,5,6,10b-octahydropyrrolo[3,4-d][1]benzazepine]	–	–	–	–	–
–	–	–	–	COC(=O)c1cccc2c1NCC[C@@H]1CNC[C@@H]21 (relative stereo) [Example 402, Methyl trans-1,2,3,3a,4,5,6,10b-octahydropyrrolo[3,4-d][1]benzazepine-7-carboxylate]	100	75	0.03	0.2	–
–	–	–	–	Cc1noc(C)c1-c1ccc2c(c1)C(=O)NC[C@@H]1CNC[C@@H]21 (single isomer, unassigned) [Example 245, Trans-8-(3,5-dimethylisoxazol-4-yl)-1,2,3,3a,4,5-hexahydrobenzo[e]pyrrolo[3,4-c]azepin-6(10bH)-one]	100	15	0.05	2	–
0.0004	> 10	105	inactive	C[C@H](O)c1cc(-c2ccc3c(c2)C(=O)NC[C@H]2CN(C)C[C@H]32)ccc1F (single isomer, unassigned) [Example 352]	–	–	–	–	–
0.0003	> 10	110	inactive	C[C@@H](O)c1cc(-c2ccc3c(c2)C(=O)NC[C@H]2CN(C)C[C@H]32)ccc1F (single isomer, unassigned) [Example 353]	–	–	–	–	–
–	–	–	–	CN1C[C@@H]2CNC(=O)c3c(OC(F)(F)F)cccc3[C@H]2C1 [Example 113, (3aS,10bS)-2-Methyl-7-(trifluoromethoxy)-1,2,3,3a,4,5-hexahydrobenzo[c]pyrrolo[3,4-e]azepin-6(10bH)-one]	120	20	0.005	2	–
–	> 10	90	inactive	CN1C[C@H]2CNC(=O)c3cc(-c4ccc(F)cc4)ccc3[C@@H]2C1 [Example 116, (3aR,10bR)-8-(4-Fluorophenyl)-2-methyl-1,2,3,3a,4,5-hexahydrobenzo[e]pyrrolo[3,4-c]azepin-6(10bH)-one]	–	–	–	–	–

SMILES	EC50 (5HT2C receptors; [1]) [µM]	EC50 (5HT2B receptors; [2]) [µM]	Emax (5HT2C receptors; [3]) [%]	Emax (5HT2B receptors; [4])	Emax (5HT2C receptors; [5]) [%]	Emax (5HT2B receptors; CHO-K1) [%]	EC50 (5HT2C receptors; EC50, 5-HT2C agonist activity) [µM]	EC50 (5HT2B receptors; EC50, 5-HT2B agonist activity) [µM]	further results
c1ccc2c(c1)NCC[C@@H]1CNC[C@@H]21 (relative stereo) [Example 389, Trans-1,2,3,3a,4,5,6,10b-octahydropyrrolo[3,4-d][1]benzazepine]	0.9	0.4	–	–	95	70	–	–	–
Cc1noc(C)c1-c1ccc2c(c1)C(=O)NC[C@@H]1CNC[C@@H]21 (single isomer, unassigned) [Example 292, Trans-8-(3,5-dimethyl-1,2-oxazol-4-yl)-2,3,3a,4,5,10b-hexahydropyrrolo[3,4-d][2]benzazepin-6(1H)-one]	–	–	–	15%	–	–	–	–	EC50 (5HT2C receptors; 5-HT2C agonist activity): 0.05 µM; Emax (5HT2C receptors; 5-HT2C, maximum functional response as percentage relative to the effect of serotonin): 100%; EC50 (5HT2B receptors; 5-HT2B agonist activity): 2 µM
O=C1NC[C@H]2CN(Cc3ccccc3)C[C@@H]2c2c(F)cc(F)cc21 [Example 105, (3aS,10bS)-2-Benzyl-8,10-difluoro-1,2,3,3a,4,5-hexahydrobenzo[c]pyrrolo[3,4-e]azepin-6(10bH)-one]	–	–	–	inactive	> 120	–	0.02	> 10	–
CN1C[C@H]2CNC(=O)c3c(OC(F)(F)F)cccc3[C@@H]2C1 [Example 112, (3aR,10bR)-2-Methyl-7-(trifluoromethoxy)-1,2,3,3a,4,5-hexahydrobenzo[c]pyrrolo[3,4-e]azepin-6(10bH)-one]	–	–	–	inactive	90	–	–	> 10	–

Source: US8846951B2 (AbbVie Inc., priority 2009, dated 2014)
